Series [1] is described as follows: accelerated stability of capsules (dissolution and assay over time). The series is classed as physicochemical.
From the text: The material was placed on accelerated stability.
Stability: Capsules were studied for stability.
Series [2] in a line: in vitro dissolution (acid/base dissolution bath, USP apparatus, HPLC). Format: physicochemical. The protocol:
The amount of active dissolution over time, e.g., guaifenesin and/or phenylephrine in the tablets or capsules disclosed herein below may be tested as follows. Briefly, in vitro guaifenesin or phenylephrine release may be determined using an acid/base dissolution bath, e.g., a standard USP 23/NF Drug Release Apparatus. Dissolution vessels of a USP calibrated dissolution bath, equipped with shafts and paddles, are filled with 675 ml of 0.1N hydrochloric acid at 37.0 degrees Centigrade. The bath and vessels are maintained at a temperature of 37.0±0.5 degrees Centigrade throughout a standard 7 hour dissolution test. […] One tablet or capsule is dropped into each vessel.
At the testing intervals, e.g., 1 minute, 10, 10, 30, 45, 60 or 90 minutes, 2, 3, 4, 6, 7, 9 or 12 hour testing intervals, an aliquot, e.g., 5 mls of dissolution solution is withdrawn from each vessel, filtered (e.g., through a 10-22 micron polyethylene filter) and tested using an HPLC. To stop the dissolution a strong base may be added to the sample, e.g., 0.2M sodium phosphate tribasic to increase the pH of the solution to about 6.8. The percent dissolution is determined using HPLC.

The conditions of series [3]: water and alcohol; cited from earlier work.

Take `COc1ccccc1OCC(O)CO` (stereo not shown) [Guaifenesin, 3(2-methoxyphenoxy)-1,2-propanediol]: in series [1], the “potency on accelerated stability” value was “stable potency”. Also, in series [1] (capsules on accelerated stability), the released immediately is on record as 100%. Moreover, the “release profile for gauifenesin” value in series [2] (sustain releasing both actives) is on record as “poor release profile”. For the same molecule, the solubility result in series [3] was “soluble in water and alcohol”.
As to `CNC[C@@H](O)c1cccc(O)c1.Cl` [Phenylephrine hydrochloride, (S)-3-hydroxy-α[(methylamino)methyl]benzenemethanol hydrochloride], the release profile entry in series [1] (capsules on accelerated stability, month to month) is listed as “first order release profile consistent with an 8 hour product”. Besides, the release of phenylephrine entry in series [2] (phenylephrine overcoated with immediate release gauifenesin) is recorded as “slowed the release of the phenylephrine to an unacceptable level”. For the same molecule, the “dissolution rate of phenylephrine” value in series [2] (when combined with Gauifenesin DC) is “accelerated”.

Source of the values: patent publication US20050152967A1, “Dynamic variable release” (PFab, LP, priority 2003, published 2005).
